Test results reported in patent publication US5068183A, “Method for measurement of α-amylase activity” (Kurita Water Industries, Ltd., priority 1986, dated 1991).

Tests used:
[1] = test system: α-amylase; assay: Measurement of α-amylase activity with Reagent I (substrate, α-glucosidase, mannitol dehydrogenase, NADH); assay type: biochemical; conditions: substrate 1 mmol/l; sample serum containing 90 mU/ml and 270 mU/ml; 37° C., 10 minutes; linear after 6 minutes
Description: When the substrate and glucosidase as a coupled enzyme are added to a sample such as a body fluid or the like, the reaction proceeds as shown below in the case of the malto-oligo saccharide represented by general formula (I) (hereinafter MeG5 F represented by general formula (IV) is used as a specific example of general formula (I)). [drawing 6]
The thus liberated monosaccharides such as fructose or the like and derivatives thereof are reacted with, for example, mannitol dehydrogenase (MDH) or sorbitol dehydrogenase (SDH) in the presence of NADH thereby to produce […]; by the change in absorbancy, the amount of fructose can be determined. [drawing 7]
Reagent I was prepared by the following formulation.
(§1) 1 mmol/l (final concentration)
(§2) 25 U/ml (final concentration)
40 U/ml (final concentration)
NADH 0.16 mmol/l (final concentration)
(§3) 100 mmol/l (final concentration)
100 mmol/1 (final concentration) To 800 μl of Reagent I described above was added 100 μl of a sample serum containing 90 mU/ml and 270 mU/ml, respectively. While incubating at 37° C. for 10 minutes, change in absorbancy was measured at 340 nm.
Measurement was performed in a similar manner except that 100 mg/ml of glucose was further added to each sample serum.

[2] = test system: α-amylase; assay: Measurement of α-amylase activity with Reagent II (substrate, α-glucosidase, inositol dehydrogenase, NAD); assay type: biochemical; conditions: substrate 1 mmol/l; sample serum containing 55 mU/ml and 220 mU/ml; 37° C., 10 minutes; linear after 4 minutes
Description: On the other hand, in the case of using the malto-oligo saccharide represented by general formula (V), when the substrate and glucosidase as a coupled enzyme are added to a sample such as a body fluid or the like, the reaction proceeds as shown below (hereinafter G5 I represented by general formula (VI) is used as a specific example of general formula (V)). [drawing 8]
The thus liberated inositol or derivatives thereof are reacted with inositol dehydrogenase (IDH) in the presence of NAD thereby to produce NADH; by the change in absorbancy, the amount of inositol can be determined. [drawing 9]
Reagent II was prepared by the following formulation.
as §1, §2
40 U/ml (final concentration
NAD 40 mmol/l (final concentration)
as §3
To 800 μl of Reagent II described above was added 100 μl of a sample serum containing 55 mU/ml and 220 mU/ml, respectively. While incubating at 37° C. for 10 minutes, change in absorbancy was measured at 340 nm.
Measurement was performed in a similar manner as in Example 5 except that 100 mg/ml of glucose was further added to each sample serum.

SMILES | change in absorbancy at 340 nm (FIG. 1) [1] | change in absorbancy at 340 nm (FIG. 2) [2]
COC[C@H]1O[C@H](O[C@H]2[C@H](O)[C@@H](O)[C@@H](O[C@H]3[C@H](O)[C@@H](O)[C@@H](O[C@H]4[C@H](O)[C@@H](O)[C@@H](O[C@H]5[C@H](O)[C@@H](O)[C@@H](O[C@]6(CO)O[C@H](CO)[C@@H](O)[C@@H]6O)O[C@@H]5CO)O[C@@H]4CO)O[C@@H]3CO)O[C@@H]2CO)[C@H](O)[C@@H](O)[C@@H]1OC [MeG5 F] | good linear relationship was obtained in any concentration after 6 minutes | –
OC[C@H]1O[C@H](O[C@H]2[C@H](O)[C@@H](O)[C@@H](O[C@H]3[C@H](O)[C@@H](O)[C@@H](O[C@H]4[C@H](O)[C@@H](O)[C@@H](O[C@H]5[C@H](O)[C@@H](O)[C@@H](OC6C(O)C(O)C(O)C(O)C6O)O[C@@H]5CO)O[C@@H]4CO)O[C@@H]3CO)O[C@@H]2CO)[C@H](O)[C@@H](O)[C@@H]1O (some centres unmarked) [G5 I] | – | good linear relationship was obtained in any concentration after 4 minutes
